For data set [1], the system named is CT-26 tumor cells. Description: CT-26 intraperitoneal tumor model. The format is in vivo, mice. The settings on record: for day post challenge by which all mice were dead: excipient control all dead 40 days after. The method, then:
30 male 6-week-old Balb/c mice, were purchased from the National Animal cancer and maintained in pressurized ventilated cage according to institutional regulations. CT-26 (1×10^6) cells were injected into peritoneal cavities at day 0. Animals were randomly assigned to anti-tumoral efficacy study (n=10). Seven days after tumor inoculation, oral administration of 5 and 10 mg/kg of I-1-b (QD for seven times) to the mice was carried out. The survival rate and body weight of the animals was monitored.

In data set [2] the test system is MCF-7 cells. Description: Cell viability assay (MTT assay), MCF-7. The settings on record: 0.125 to 10 μM, 48 hours; dose-dependent decrease of cell viability. (Formazan colour is commonly taken as a measure of viable cells.)
Experimental: (§1) Cells were seeded in a 24-well microtiter plate (2×10^4 cells/well) overnight, then treated with DMSO (Control) or various concentrations of test compounds, and incubated for 48 hours. The effect of test compounds on cell growth was examined by the MTT (3-(4,5-dimethylthiazol-2-yl)-2,5-diphenyl tetrazolium bromide) assay. Briefly, 40 μl of MTT solution (2 mg/ml, Sigma Chemical Co.) was added to each well to make a final volume of 500 μl and incubated for 1 h at 37° C. The supernatant was aspirated, and the MTT-formazan crystals formed by metabolically viable cells were dissolved in 200 μl of DMSO. Finally, the absorbance at O.D. 550 nm was detected by enzyme-linked immunosorbent assay (ELISA) reader.
Data set [3] deals with HCT-116 colon cancer cell line. The data set is described as follows: Cytotoxic activity, MTT assay, HCT-116. The format is cell-based, human. The settings on record: 48 h, 50% growth-inhibitory effect, read-out: IC50 HCT116.
Experimental: as §1
Data set [4] relates to Hep G2 hepatoma cancer cell line. Description: Cytotoxic activity, MTT assay, Hep G2. The following applies: 48 h, 50% growth-inhibitory effect. The format is cell-based, human.
Experimental: as §1
The test system of data set [5] is NCI-H226 non-small cell lung cancer cell line. Description: Cytotoxic activity, MTT assay, NCI-H226. It is filed as cell-based, human. The settings on record: 48 h, 50% growth-inhibitory effect.
Experimental: as §1
For data set [6], the system named is A549 lung cancer cell line. Description: Cytotoxic activity, MTT assay, A549. The format is cell-based, human. The settings on record: 48 h, 50% growth-inhibitory effect.
Experimental: as §1
Data set [7] deals with A498 renal cancer cell line. The data set is described as follows: Cytotoxic activity, MTT assay, A498. The format is cell-based, human. The following applies: 48 h, 50% growth-inhibitory effect.
Experimental: as §1
Data set [8] has as its system HL-60 leukemia cancer cell line. The data set is described as follows: Cytotoxic activity, MTT assay, HL-60. The settings on record: 50% growth-inhibitory effect. It is filed as cell-based, human.
Experimental: as §1
The mark [9] stands for this setting: Homo sapiens, Table 2, HL-60 cells, 48 h, read-out: IC50.

Structures can show the parent of a compound that is named as a salt. Where two headings read alike, the source gives them in different places.

By melting point is commonly meant the temperature of the solid-liquid transition. On to `O=P(O)(O)Oc1cc(-c2ccccc2)nc2ccccc12` (as salt: phosphate) [Compound I-4-b, 2-Phenylquinolin-4-yl-phosphate], for which the melting point was over 300 °C.
As to `O=P(O)(O)Oc1cc(-c2ccccc2F)nc2cc3c(cc12)OCO3` [Compound I-1-b, 2-(2′-Fluorophenyl)-6,7-methylenedioxyquinolin-4-yl-phosphate], in data set [1] (5 mg/kg/day QD×7), the “average life span prolonged by” value is given as 120% and the “day post challenge by which all mice were dead” value was at most 45 days. Also, in data set [1] (10 mg/kg/day QD×7), the “average life span prolonged by” value is 140% and the “day post challenge by which all mice were dead” value is at most 50 days. Also, the maximally tolerated dose result in data set [1] (Balb/c mice, oral, up to 10 mg/kg/day QD×7) is “not achieved”. Besides, in [2], the “cytotoxicity against MCF-7 cells (cell viability, MTT)” value (from here on “cytotoxicity against MCF-7 cells”) is “significant cytotoxicity”.
Regarding `O=P(O)(O)Oc1cc(-c2cccc(F)c2)nc2cc3c(cc12)OCO3` [Compound I-2-b, 2-(3′-Fluorophenyl)-6,7-methylenedioxyquinolin-4-yl-phosphate], the melting point is over 300 °C. Further, in [2], the “cytotoxicity against MCF-7 cells” value is “significant cytotoxicity”.
Turning to `O=P(O)(O)Oc1cc(-c2ccccc2)nc2ccc(F)cc12` [Compound I-3-b, 6-Fluoro-2-phenylquinolin-4-yl-phosphate], the melting point was over 300 °C. Also, the “cytotoxicity against MCF-7 cells” value in data set [2] is “significant cytotoxicity”.
As for `O=P(O)(O)Oc1cc(-c2ccccc2)nc2ccccc12` [Compound I-4-b, 2-Phenylquinolin-4-yl-phosphate], the “cytotoxicity against MCF-7 cells” value in [2] is reported as “significant cytotoxicity”.
On to `COc1ccc2nc(-c3cccc(F)c3)cc(OP(=O)(O)O)c2c1` [Compound I-5-b, 6-Methoxy-2(3-′fluorophenyl)-quinolin-4-yl-phosphate], for which the melting point was over 300 °C. Also, in [2], the “cytotoxicity against MCF-7 cells” value was “significant cytotoxicity”.
One may read the IC50 as the concentration at which inhibition is half-maximal. Regarding `O=c1cc(-c2ccc[se]2)[nH]c2cc3c(cc12)OCO3` [Compound I-7-d, 2-(2′-Selenophenyl)-6,7-(methylenedioxy)-4-quinolone], the 50% inhibitory concentration (IC50) in data set [3] stood at 0.9 µM; in data set [4] it was 4.1 µM; in data set [5], 4.9 µM; in data set [6] it was 8.1 µM; in data set [7] it was 2.7 µM; in [8] (Table 1, 48 h, read-out: IC50 HL-60), 0.5 µM.
For `CCN(CC)Cc1ccc2[nH]c(-c3ccccc3)cc(=O)c2c1` [Compound I-8-e, 6-[(Diethylamino)methyl]-2-phenylquinolin-4(1H)-one], the IC50 in data set [8] (setting [9]) was found to be 15 µM.
The same measure, in the same setting: the figure for `CCN(CC)Cc1ccc2[nH]c(-c3ccccc3F)cc(=O)c2c1` [Compound I-9-e, 6-[(Diethylamino)methyl]-2-(2-fluorophenyl)quinolin-4(1H)-one] is 5.8 µM.
Still for that read-out and setting: the figure for `CCN(CC)Cc1cccc(-c2cc(=O)c3cc(OC)ccc3[nH]2)c1` [Compound I-10-f, 2-{3-[(Diethylamino)methyl]phenyl}-6-methoxyquinolin-4(1H)-one] is over 50 µM.

The record behind these values is patent US9029394B2, “2-phenyl-4-quinolones as anticancer agents” (China Medical University, priority 2006, dated 2015).
